A word on the pIC50: it is −log10 of the IC50, conventionally taken in molar units. As usually defined, the inhibition in vivo is the drop in the measured response relative to a control, in per cent. In general, inhibition refers to the share of the control response that was lost under treatment. The term melting point denotes the temperature of the solid-liquid transition.

Consider eight compounds from US20030055065A1, “Tricyclic amide and urea compounds useful for inhibition of G-protein function and for treatment of proliferative diseases” (priority 1993, published 2003).

The subject of data set [1] is A431 (human epidermal carcinoma). Briefly: In vivo anti-tumor study, A431. Details: species or system athymic nu/nu female mice; concentration or dose not given beside the values. Particulars: s.c. tumor A431, BID.
For data set [2], the system named is T24-BAG4 human bladder carcinoma cells expressing an activated H-ras gene. Nature of the data set: Cell Mat Assay: tumor cell colony inhibition (tIC50). Format: cell-based. The conditions noted are these: Homo sapiens, inhibition of tumor cell growth. The procedure, abridged:
(§1)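 Serial compound dilutions added 24 h after planting T24-BAG4 cells onto a mat of normal cells, then 14 d colony growth; monolayers glutaraldehyde-fixed and tumor cells X-Gal stained. tIC50 and mIC50 from microscope counts of colonies, cells per colony and mat cell density.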

In data set [3] the test system is C-f-1 (mouse fibroblast transformed with c-fos oncogene). Briefly: In vivo anti-tumor study, C-f-1. Details: species or system athymic nu/nu female mice; concentration or dose not given beside the values. The conditions noted are these: s.c. tumor C-f-1, BID.
Data set [4] has as its system SW620 (human colon adenocarcinoma [lymph node metastasis]). Nature of the data set: In vivo anti-tumor study, SW620. Set-up: species or system athymic nu/nu female mice; percent inhibition of tumor growth relative to vehicle controls: concentration or dose not given beside the values. The conditions noted are these: for inhibition in vivo at 100 mg/kg: Mus musculus; for inhibition in vivo at 100 mg/kg / Average % Tumor Inhibition: SW620 tumor, 10/wk; for percent inhibition of tumor growth relative to vehicle controls: s.c. tumor SW-620, BID.

Data set [5] concerns Normal human HEPM fibroblasts. Briefly: Cell Mat Assay: density of mat cells (mIC50). Format: cell-based. The gist of the method:
as §1

In data set [6] the test system is Ras-CVLS processing in COS monkey kidney cells. Briefly: COS cell assay: Ras-CVLS processing (Western blot). It counts as cell-based. Particulars: COS cells, read-out: Inhibition of Ras Processing IC50. The procedure, abridged: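 COS cells electroporated with Ras-CVLS (farnesyl transferase substrate) cDNA, with drug-containing fresh medium added at 24 h and cells examined at 48 h. TCA-precipitated cellular protein was resolved by SDS gel and immunoblotted with anti-p21 Ras monoclonal and HRP anti-rat IgG to monitor Ras processing.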
(In general: In western blotting, separated proteins are transferred to a membrane and probed.)

Data set [7] addresses T1, geranylgeranyl protein transferase (GGPT) I (Rattus norvegicus, UniProt P53610+Q04631).
T1 construct: were partially purified from rat brain by ammonium sulfate fractionation followed by Q-Sepharose
Briefly: Inhibition of geranylgeranyl protein transferase I (Ras-CVLL as acceptor). It counts as biochemical. The conditions noted are these: for selective for FPT inhibition (over GGPT): FPT versus GGPT; for pIC50: enzyme inhibition. The procedure, abridged: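 Rat brain GGPT I, partially purified by ammonium sulfate fractionation and anion exchange, was assayed with [3H]geranylgeranyl pyrophosphate as isoprenoid donor. The acceptor was E. coli-expressed His6-tagged val12-Ha-Ras ending in CVLL. The protocol otherwise matched the farnesyl protein transferase assay.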

The target in data set [8] is T2, farnesyl protein transferase (FPT), partially purified from rat brain (Rattus norvegicus, UniProt Q02293+Q04631).
T2 construct: were partially purified from rat brain by ammonium sulfate fractionation followed by Q-Sepharose
Briefly: Inhibition of farnesyl protein transferase (transfer of [3H]farnesyl to Ras-CVLS). It counts as biochemical. The gist of the method:
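Transfer of [3H]farnesyl onto E. coli-expressed, His6-tagged Ras-CVLS was measured after 30 min at room temperature. Radiolabelled Ras was TCA-precipitated on ice and filter-harvested, and inhibition was expressed as percent of DMSO control.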

Data set [9] concerns M27 (mouse Lewis lung carcinoma). Nature of the data set: In vivo anti-tumor study, M27. Set-up: species or system athymic nu/nu female mice. Particulars: po; for Average % Tumor Inhibition: M27 tumor, 100 MPK; for percent inhibition of tumor growth relative to vehicle controls: s.c. tumor M27, BID, 1-7, ×4. The source says: In vivo Anti-tumor Studies
[10] abbreviates: Ras-CVLS farnesylation, partially purified rat brain FPT, read-out: FPT IC50.
Setting [11] is: enzyme inhibition, read-out: FPT IC50.

pIC50: −log10 of the molar value. Values joined by “and” are separate entries in the source; they are usually repeats but may differ in a detail not shown here. Equal values may be shown once. Read-outs that look alike come from different tables or passages of the source. Marks after values point to notes of the source that are not given here.

T2 sequence (Q02293 whole entry, one chain of several): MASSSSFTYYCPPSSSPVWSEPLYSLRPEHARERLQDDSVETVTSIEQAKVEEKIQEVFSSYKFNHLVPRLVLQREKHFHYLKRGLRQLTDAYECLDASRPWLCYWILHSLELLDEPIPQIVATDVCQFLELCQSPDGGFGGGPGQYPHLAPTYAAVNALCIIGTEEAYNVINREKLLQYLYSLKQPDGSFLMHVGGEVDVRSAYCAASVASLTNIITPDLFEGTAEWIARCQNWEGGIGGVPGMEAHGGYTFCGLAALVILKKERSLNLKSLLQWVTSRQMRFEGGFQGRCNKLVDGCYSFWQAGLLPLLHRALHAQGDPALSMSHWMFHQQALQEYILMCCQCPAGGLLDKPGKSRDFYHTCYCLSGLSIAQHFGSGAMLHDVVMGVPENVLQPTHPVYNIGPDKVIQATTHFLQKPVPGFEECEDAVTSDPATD
T1 sequence (P53610 whole entry, one chain of several): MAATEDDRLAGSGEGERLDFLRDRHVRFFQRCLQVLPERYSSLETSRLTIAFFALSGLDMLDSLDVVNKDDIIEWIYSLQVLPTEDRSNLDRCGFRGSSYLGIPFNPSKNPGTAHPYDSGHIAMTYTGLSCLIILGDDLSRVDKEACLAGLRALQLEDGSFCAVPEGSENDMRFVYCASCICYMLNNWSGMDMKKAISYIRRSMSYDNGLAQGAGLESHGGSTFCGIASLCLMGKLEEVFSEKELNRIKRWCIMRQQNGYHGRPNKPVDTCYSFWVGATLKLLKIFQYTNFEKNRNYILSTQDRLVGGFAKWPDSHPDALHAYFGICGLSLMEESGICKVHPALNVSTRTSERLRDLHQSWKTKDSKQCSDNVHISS

Take `O=C(Cc1cccnc1)N1CCC(=C2c3ccc(Cl)cc3CCc3cccnc32)CC1` [Example 2, 8-chloro-11-[1-(1-(3-pyridyl)-methylcarbonyl)-4-piperidylidene]-6,11-dihydro-5H-benzo[5,6]cyclohepta[1,2-b]-pyridine]: the “percent inhibition of tumor growth relative to vehicle controls” value in data set [1] (po, 1-5, ×4) was 45.6% and 36.5%; in data set [3] (ip, 1-5, ×2), 8%; in [3] (po, 1-5, ×4), 9.6%; in data set [4] (ip, 1-5, ×4), 0%; in [4] (po, 1-5, ×2) it was 46.1%; in data set [4] (po, 1-5, ×4), 33.5%. Also, the “percent inhibition of tumor growth relative to vehicle controls” value in data set [9] is listed as 61.2%. Besides, the pIC50 in data set [2] is 4.60; in data set [5] (Homo sapiens, Fibroblast) it was under 4.30; in data set [6] (Primates, COS) it was 5.43; in data set [7], under 4.34; in [8] (setting [10]), 6.33; in [8] (setting [11]), 6.33. Besides, the inhibition in vivo at 100 mg/kg came out at 0% in data set [4] (SW-620, ip, 100 MPK, ip, x2); 0% in [4] (SW-620, po, 100 MPK, po, x2); 1% in data set [4] (SW-620, po, 100 MPK, po, x4). Moreover, in data set [7], the “selective for FPT inhibition (over GGPT)” value is on record as “at least 98 fold”. In data set [7] (at 46 μM, Ras-CVLL as isoprenoid acceptor), this compound came in with an inhibition at 46 µM of 25%. In [9] (14/wk, x4), the “Average % Tumor Inhibition” value is 45%.

With `O=C(CN1C(=O)c2ccccc2C1=O)N1CCC(=C2c3ccc(Cl)cc3CCc3cccnc32)CC1` [Example 3], the “percent inhibition of tumor growth relative to vehicle controls” value in data set [1] (ip, 1-5, ×4) amounted to 0%; in [3] (ip, 1-5, ×2), 8%; in data set [3] (po, 1-5, ×4), 0%; in data set [4] (ip, 1-5, ×4), 27%; in [4] (po, 1-5, ×2) it was 15.8%; in data set [9], 27.3%. Besides, the pIC50 is under 4.30 in data set [2]; under 4.30 in data set [5] (Homo sapiens, Fibroblast); under 5.00 in [6] (Primates, COS); under 4.41 in data set [7]; 6.18 in data set [8] (setting [10]); 6.18 in [8] (setting [11]). In addition, the “selective for FPT inhibition (over GGPT)” value in data set [7] is recorded as “at least 59 fold”. Moreover, at 39 µM the inhibition in data set [7] (at 39 μM, Ras-CVLL as isoprenoid acceptor) was 3%.

As for `O=C(c1ccc(O)cc1)N1CCC(=C2c3ccc(Cl)cc3CCc3cccnc32)CC1` [Example 7], the “percent inhibition of tumor growth relative to vehicle controls” value in data set [1] (ip, 1-5, ×4) turned out to be 0%; in data set [1] (po, 1-5, ×4), 29.1%; in data set [3] (ip, 1-5, ×2), 39.7%; in data set [3] (po, 1-5, ×4), 39.3%; in data set [4] (ip, 1-5, ×4), 19.6%; in data set [4] (po, 1-5, ×2), 48.6%. Further, the “percent inhibition of tumor growth relative to vehicle controls” value worked out at 0% in [4] (po, 1-5, ×4) and 58.2% in data set [9]. Moreover, the pIC50 was 4.30 in data set [2]; 4.00 in data set [5] (Homo sapiens, Fibroblast); under 4.35 in data set [7]; 5.64 in [8] (setting [10]); 5.64 in data set [8] (setting [11]). In addition, the inhibition in vivo at 100 mg/kg in data set [4] (SW-620, po, 100 MPK, po, x2) is 13%; in [4] (SW-620, po, 100 MPK, po, x4), 0%. Moreover, the “Average % Tumor Inhibition” value in [9] (14/wk, x4) turned out to be 40%.

The compound `O=C(Cc1cccc([N+](=O)[O-])c1)N1CCC(=C2c3ccc(Cl)cc3CCc3cccnc32)CC1` [Example 45] gave a melting point of 94.3 to 95.5 °C. The compound further had a pIC50 in [2] of 5.20. For the same compound, the pIC50 in data set [5] (Homo sapiens, Fibroblast) was under 4.30. Moreover, the pIC50 in data set [6] (Primates, COS) was 5.38. Further, the pIC50 in [8] (setting [10]) is 5.92 and 6.06. The “Average % Tumor Inhibition” value in data set [9] (10/wk, x3) was 0%.

Regarding `O=C(Cc1ccncc1)N1CCN(C2c3ccc(Cl)cc3CCc3cccnc32)CC1` (stereo not shown) [Example 75], the “percent inhibition of tumor growth relative to vehicle controls” value in [1] (po, 1-6, ×4) is listed as 34.5%; in data set [3] (po, 1-5, ×4), 20%; in data set [4] (po, 1-5, ×4), 43.4%. Also, the pIC50 in [2] was 5.60; in data set [5] (Homo sapiens, Fibroblast), under 4.30; in data set [8] (FPT IC50, Ras-CVLS farnesylation, partially purified rat brain FPT), 6.44 and 6.80. The “Average % Tumor Inhibition” value in data set [9] (10/wk, x4) is reported as 0%.

As for `O=C(C(c1ccccc1)c1ccccc1)N1CCN(C2c3ccc(Cl)cc3CCc3cccnc32)CC1` (stereo not shown) [Example 79], the “percent inhibition of tumor growth relative to vehicle controls” value in [1] (po, 1-6, ×4) is given as 0%; in [3] (po, 1-5, ×4), 25%; in data set [4] (po, 1-5, ×4) it was 26.7%. Also, the pIC50 in [2] was 4.90; in [5] (Homo sapiens, Fibroblast), under 4.30; in data set [6] (Primates, COS), 5.29; in data set [8] (setting [10]) it was 5.60; in [8] (setting [11]), 5.60.

Take `S=C(c1ccncc1)N1CCC(=C2c3ccc(Cl)cc3CCc3cccnc32)CC1` [Example 88]: the “Average % Tumor Inhibition” value is 4% and 0% in [4] (25 MPK, po, x4, listed as Ex. 88, 25 mg/kg); 30% in [4] (50 MPK, po, x4); 43.25* % and 38% and 37% and 27.4* % and 28% in [4] (100 MPK, po, x4, listed as Ex. 88, 100 mg/kg); 19% in data set [9] (10/wk, x4). The pIC50 in data set [5] is under 4.30; in [6], under 4.92; in data set [8] (setting [10]) it was 6.00.

As to `O=C(Cc1ccc(O)c(O)c1)N1CCC(=C2c3ccc(Cl)cc3CCc3cccnc32)CC1` [Example 127], the pIC50 was 5.20 in data set [2]; under 4.30 in data set [5] (Homo sapiens, Fibroblast); 5.46 and 5.57 in data set [8] (setting [10]). In data set [4] (SW-620, po, 100 MPK, po, x4), this compound came in with an inhibition in vivo at 100 mg/kg of 25%. Moreover, the “Average % Tumor Inhibition” value in [9] (10/wk, x3) is 22%.
